Test results taken from patent US7629371B2, “Cosmetic use of a composition containing at least one oxazoline, serving as an active substance, as a slimming product and/or for preventing and/or treating cellulite” (Laboratoires Expanscience, priority 2003, dated 2009).

Tests used:
normal human adipocytes [1] = experiment: Evaluation of lipid synthesis in adipocytes in suspension (Example 7): incorporation of radiolabelled acetate into lipids; assay type: cell-based; settings: for decrease of the incorporation of acetate into lipids, % of the control: FIG. 2
Experimental: A solution of OX100 (10^−2 M in DMSO) was tested.
Culture Conditions: They are identical to those of example 6.
The adipocytes in suspension are incubated for 1 h at 37° C. in the presence of various concentrations of OX100 (10, 20 and 100 μMO). A volume of 10 ml of radiolabelled acetate (2-C^14, 60.87 μCi/ml, Amersham) is subsequently added to the preparation. After incubation for 4 h, the lipids are extracted according to the procedure described by Bligh and Dyer (methanol/chloroform/water), and evaporated under nitrogen, and the radioactivity incorporated is quantified by liquid scintillation (Rackbeta LKB 1210).

normal human adipocytes [2] = experiment: Evaluation of lipid synthesis in adipocytes in suspension (Example 6): incorporation of radiolabelled acetate into lipids; assay type: cell-based; settings: for decrease of the incorporation of acetate, % of the control: FIG. 1
Experimental: A solution of OX100, diluted to a concentration of 10^−2 M in DMSO, was tested.
Normal human adipocytes were isolated from abdominal biopsies (plastic surgery). Immediately after they have been received, the samples are incubated for 30 minutes at 37° C. in the presence of collagenase (supplied by the company Sigma). The adipocyte suspension is subsequently rinsed and diluted three times in the culture medium. The culture medium consists of: • 1.87 mg/ml bicarbonate (supplied by the company Life Technologies), • 25 IU/ml/25 μg/ml of penicillin/streptomycin (supplied by the company Life Technologies), • 2 mM of glutamine (supplied by the company Life Technologies), • 100% v/v of MEM (supplied by the company Merck Eurolab), and • 0.5% w/v of albumin of bovine origin (supplied by the company Sigma). Evaluation of Lipid Synthesis
The adipocytes in suspension are incubated for 1 hour at 37° C. in the presence of various concentrations of OX100. The OX100 concentrations tested are 20 μM, 4 μM and 0.8 μM.
A volume of 10 ml of radiolabelled acetate (2-C^14, 60.87 μCi/ml, supplied by the company Amersham) is subsequently added to the preparation.
After incubation for 4 hours, the lipids are extracted according to the procedure described by Bligh and Dyer, Can J Biochem Physiol, 37, 922, (1959), (methanol/chloroform/water), and evaporated under nitrogen, and the radioactivity incorporated is quantified by liquid scintillation (liquid scintillation device reference LKB 1210, supplied by the company Rackbeta).
The possible interaction between the radiolabelled acetate and the OX100 was evaluated in order to confirm the specificity of labeling, by incubating the highest concentration of OX100 (20 μM) with acetate alone.

[3] = tested at 10 μM, 1 h preincubation, 4 h with 2-C14 acetate

Row | Compound | inhibition of the incorporation of acetate (inhibition/control) (normal human adipocytes [1]; [3]) | inhibition of the incorporation of acetate (inhibition/control) (normal human adipocytes [2]; [3]) | decrease of the incorporation of acetate into lipids, % of the control (normal human adipocytes [1]; OX100 at 10 μM) | decrease of the incorporation of acetate into lipids, % of the control (normal human adipocytes [1]; OX100 at 20 μM) | decrease of the incorporation of acetate into lipids, % of the control (normal human adipocytes [1]; OX100 at 100 μM) | inhibitory activity on lipid synthesis (in words) (normal human adipocytes [1]; human adipocytes in culture) | inhibition of lipogenesis in human adipocytes (in words) (normal human adipocytes [2]) | decrease of the incorporation of acetate, % of the control (normal human adipocytes [2]; OX100 at 4 μM, 4 h with 2-C14 acetate) | decrease of the incorporation of acetate, % of the control (normal human adipocytes [2]; OX100 at 20 μM, 4 h with 2-C14 acetate)
1 | C/C=C/C/C=C/CCC(=O)[C@H]1O[C@H]1C(N)=O [ceruline, reference compound] | 75% | 95% |  |  |  |  |  |  | 
2 | CCCCCCCCCCCC1=NC(C)(C)CO1 [OX100, 2-undecyl-4,4-dimethyl-1,3-oxazoline] |  |  | 35% | 38% | 39% | significant inhibitory activity | capable of inhibiting lipogenesis | 25% | 31%
